According to PubChem BioAssay AID1259334 (Broad Institute, 2017):
The source made the active and inactive calls. Cut-off read from the data, not from the text of the source: active = AC50 below about 11 µM.

These compounds were tested on B cell line, TNFa signaling counterscreen reporter (assay: TNFa pathway inhibition counter-screen, B-lineage cells – dose response (AID 1259334);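 note: cells stimulated with TNFa after compound preincubation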).

| Compound | AC50 |
| --- | --- |
| Cc1noc(C)c1S(=O)(=O)N(C)C[C@@H]1OCc2ccccc2-c2c(n(C)c3ccccc23)C(=O)N([C@@H](C)CO)C[C@@H]1C | 10.2 µM |
| COc1ccc(-c2ccc([C@H]3[C@@H](C#N)N(C(=O)c4cccc(F)c4)[C@H]3CO)cc2)cc1 | > 22 µM (inactive) |
| C=CC[n+]1c(/C=C2\C=Cc3cc(C)ccc3N2CC)ccc2ccccc21 | 0.951 µM |
| CC(=O)OC(C)(C)/C=C/C(=O)C(C)(O)C1C(O)CC2(C)C3CC=C4C(CC(O)C(=O)C4(C)C)C3(C)C(=O)CC12C (configuration not stated) | 0.029 µM |
| CCc1csc(N2[C@H](C#N)[C@H](c3ccc(C#Cc4ccc(F)cc4)cc3)[C@H]2CO)n1 | > 20 µM (inactive) |
| CC(C)CC#Cc1ccc([C@@H]2[C@H]3CN(C(=O)Nc4ccccc4)CCCCN3[C@H]2CO)cc1 | 6.52 µM |
| Cc1ccc(C(OCC(O)CNCc2ccc(F)cc2)c2ccccc2)cc1 (configuration not stated) | 7.2 µM |
| COc1ccc(CN(CCC(c2ccccc2)c2ccc(OC(C)C)cc2)C(=O)CCl)cc1OC (configuration not stated) | 1.46 µM |
| COC(=O)C1=C(C(=O)OC)C2OC1c1cc3ccccc3cc12 | 0.519 µM |
| CCCNC(=O)N1[C@H](C#N)[C@H](c2ccc(C#Cc3cccc(F)c3)cc2)[C@H]1CO | 8.92 µM |
| Cc1ccsc1C(=O)OCC(=O)c1cc(C)n(CC2CCCO2)c1C (configuration not stated) | 0.0426 µM |
| C[C@@H]1C[C@@H]([C@H](O)CC2CC(=O)NC(=O)C2)C(=O)[C@@H](C)C1 | 0.199 µM |
| COc1cccc(-c2cc(=O)c3cc(OC)ccc3o2)c1 | 3.07 µM |
| c1ccc(-c2nc(-c3ccccn3)no2)cc1 | 3.9 µM |
| CC1=CC2OC3CC4OC(=O)C=CC=CC(=O)OCCC(C)C(O)C(=O)OCC2(CC1O)C4(C)C31CO1 (configuration not stated) | 0.00511 µM |
| COc1ccc2c3c([nH]c2c1)[C@H](CO)N(C(=O)Nc1ccc(F)cc1)CC31CN(Cc2cc(F)ccc2F)C1 | > 20 µM (inactive) |
| CCCn1c(NC(=O)c2cccc(S(=O)(=O)N3CCCC3)c2)nc2ccccc21 | 2.61 µM |
| CCOc1ncccc1C(=O)OC(C)C(=O)Nc1ccc(Cl)cn1 (configuration not stated) | 10.3 µM |
| C[C@H]1CN([C@@H](C)CO)C(=O)Cc2cc(NS(=O)(=O)c3cccs3)ccc2O[C@@H]1CN(C)Cc1ccc(Cl)c(Cl)c1 | 7.19 µM |
| Cc1cc(C)nc(Sc2ncnc(N)c2[N+](=O)[O-])n1 | 2.53 µM |
| CCCCn1c(NC(=O)c2ccc(Br)o2)c(S(=O)(=O)c2ccccc2)c2nc3ccccc3nc21 | 9.82 µM |
| COc1cccc(S(=O)(=O)N(C)C[C@H]2OCc3ccccc3-c3c(n(C)c4ccccc34)C(=O)N([C@@H](C)CO)C[C@@H]2C)c1 | > 20 µM (inactive) |
| COc1ccc(S(=O)(=O)Nc2ccc3c(c2)C(=O)N([C@@H](C)CO)C[C@@H](C)[C@H](CN(C)Cc2ccc(C(F)(F)F)cc2)OCCCC[C@@H](C)O3)cc1 | 8.32 µM |

| Compound | AC50 |
| --- | --- |
| O=C(NC(=S)/C(=C1\CCCCCN1)[N+](=O)[O-])c1ccccc1 | 0.12 µM |
| C[C@H]1O[C@@H](O[C@H]2[C@@H](O)C[C@H](O[C@H]3[C@@H](O)C[C@H](O[C@H]4CC[C@]5(C)C6C[C@@H](O)[C@]7(C)[C@@H](C8=CC(=O)OC8)CC[C@]7(O)C6CC[C@@H]5C4)O[C@@H]3C)O[C@@H]2C)C[C@H](O)[C@@H]1O (some centres not stated) | 0.697 µM |
| CC1(C)C(=O)C=C[C@@]2(C)C1C[C@@H](O)[C@]1(C)C2CC[C@@]2(C)[C@H](c3ccoc3)OC(=O)[C@H]3O[C@]321 (some centres not stated) | 11.3 µM |
| CC(=NNc1ccc2ccccc2n1)c1ccccc1O | 1.52 µM |
| COC(=O)c1nn(-c2ccc(-c3ccccc3)cc2)cc1O | 8.92 µM |
| C[n+]1c(-c2ccccc2)cc2c(=Cc3ccc([N+](=O)[O-])cc3)c3ccccc3n21 | 2.96 µM |
| Cc1ccccc1NC(=O)c1nc(S(C)(=O)=O)ncc1Cl | 1.96 µM |
| c1ccc(-c2ccc(-c3ccccn3)nn2)nc1 | 6.99 µM |
| Cc1csc(NC(=O)c2ccc(N3CCCC3=O)cc2)n1 | 3.75 µM |
| CC[C@@]1(O)C(=O)OCc2c1cc1n(c2=O)Cc2cc3cc(O)ccc3nc2-1 | 1.13 µM |
| CCCCCN1C=CC(=C2C(=O)c3ccccc3C2=O)C=C1 | 0.316 µM |
| COc1ccc(CN(CCC(c2ccc(F)cc2)C2CCOC(C)(C)C2)C(=O)c2ccco2)cc1 (configuration not stated) | 11.3 µM |
| CC(C)c1c(O)ccc2c1CCC1C(C)(C)CCC[C@]21C (some centres not stated) | 5.43 µM |
| Cc1ccccc1C(=O)N1CCC(C(=O)Nc2nc3ccc(F)cc3s2)CC1 | 7.86 µM |
| C[C@H]1O[C@@H](O[C@H]2[C@@H](O)C[C@H](O[C@H]3[C@@H](O)C[C@H](O[C@H]4CC[C@]5(C)C6CC[C@]7(C)[C@@H](C8=CC(=O)OC8)CC[C@]7(O)C6CC[C@@H]5C4)O[C@@H]3C)O[C@@H]2C)C[C@H](O)[C@@H]1O (some centres not stated) | 0.444 µM |
| COc1ccc(/C=C\c2nc(=O)c3ccccc3o2)cc1 | 9.73 µM |
| COc1ccc(S(=O)(=O)Nc2ccc3c(c2)C(=O)N([C@@H](C)CO)C[C@H](C)[C@@H](CN(C)Cc2ccc(C(F)(F)F)cc2)OCCCC[C@@H](C)O3)cc1 | 7.51 µM |
| CCCNC(=O)c1cc2c(c(-c3cccc(-c4cc5ccccc5o4)c3)n1)[C@H](CCO)N(C(=O)NC(C)C)C2 | > 20 µM (inactive) |
| COc1ccc(C#Cc2ccc([C@H]3[C@H]4CN(C(=O)c5ccncc5)CCCCN4[C@H]3CO)cc2)cc1 | 8.29 µM |
| COc1cc(C(C)C)c2c(c1)S(=O)(=O)N(COc1cc(=O)n3cccc(OCCN4CCCCC4)c3n1)C2=O | 3.4 µM |
| CNC(=S)NN=C(C)CCCC(C)=NNC(=S)NC | 2.47 µM |
| O=C1C(O)CC2c3ccccc3CC3(CCCC3)N12 (configuration not stated) | > 20 µM (inactive) |
| N#C[C@@H]1[C@H](c2ccc(C#CC3CCCCC3)cc2)[C@H](CO)N1C(=O)Nc1ccc(F)cc1 | > 20 µM (inactive) |

| Compound | AC50 |
| --- | --- |
| N#C[C@@H]1[C@H](c2ccc(C#Cc3ccccc3F)cc2)[C@@H](CO)N1C(=O)c1cccnc1 | 6.76 µM |
| CC1OC(OC2CC(O)C3(CO)C4C(O)CC5(C)C(C6=CC(=O)OC6)CCC5(O)C4CCC3(O)C2)C(O)C(O)C1O (configuration not stated) | 0.109 µM |
| CCCCCCCCCCCCCCCC[n+]1ccccc1 | 0.119 µM |
| Clc1ccc(COC(Cn2ccnc2)c2ccc(Cl)cc2Cl)c(Cl)c1 (configuration not stated) | 8.2 µM |
| CCC(=O)NC(c1ccccc1OC)c1ccc2cccnc2c1O (configuration not stated) | 9.46 µM |
| CCC(C)(O)C(=O)OC1C(=O)OC2CC3C(C)=CC(=O)C(O)C3(C)C3C4(O)OCC23C1C(C)C4O (configuration not stated) | 0.0228 µM |
| CC1CC(C)(C)Nc2ccc(OC(=O)c3ccco3)cc21 (configuration not stated) | 2.42 µM |
| Oc1cc2c(cc1C(c1ccc(Br)cc1)N1CCCC1)OCO2 (configuration not stated) | 6.97 µM |
| C=C1C(=O)OC2C=C(CO)C3OC3C3OC3(C)CC(OC(=O)/C(=C/C)COC(C)=O)C12 (configuration not stated) | 1.67 µM |
| O=C(Nc1ccc2c(c1)OCCO2)C1CCCC1 | 1.76 µM |
| CC1OC(CC(=O)O)CC2=C1C(=O)c1c(O)cccc1C2=O (configuration not stated) | 0.0869 µM |
| CC(=O)OC1CC2(O)C3CCC4CC(O)CCC4(C)C3CCC2(C)C1C1=CC(=O)OC1 (configuration not stated) | 0.839 µM |
| C[C@H](CO)N1C[C@H](C)[C@@H](CN(C)Cc2ccc(Oc3ccccc3)cc2)OCc2ccccc2-c2ccccc2C1=O | 7.02 µM |
| N#CC(C#N)=NNc1cccc(Cl)c1 | 9.25 µM |
| C[C@@H]1CN([C@H](C)CO)C(=O)c2ccccc2-c2ccccc2CO[C@@H]1CN(C)Cc1ccccc1C(F)(F)F | 10.7 µM |
| Cc1ccc(S(=O)(=O)N[C@@H](Cc2ccccc2)C(=O)CCl)cc1 | 1.2 µM |
| CC[C@@]1(O)C(=O)OCc2c1cc1n(c2=O)Cc2cc3c(CN(C)C)c(O)ccc3nc2-1 | 1.01 µM |
| O=C(c1nnsc1S(=O)(=O)c1ccc(Cl)cc1)N1CCOCC1 | 2.07 µM |
| Oc1c(Cl)cc(Cl)cc1Sc1cc(Cl)cc(Cl)c1O | 3.41 µM |
| C[C@H](CO)N1C[C@H](C)[C@H](CN(C)S(=O)(=O)c2ccc([N+](=O)[O-])cc2)OCc2ccccc2-c2c(n(C)c3ccccc23)C1=O | 9.88 µM |
| N#C[C@H]1[C@H](c2ccc(C#Cc3ccccc3F)cc2)[C@H](CO)N1C(=O)C1CC1 | 11.3 µM |
| COc1cc(/C=N/n2cnnc2)ccc1OC(=O)c1ccncc1 | 8.26 µM |
| C[C@@H]1CN([C@@H](C)CO)C(=O)c2ccccc2-c2ccccc2CO[C@@H]1CN(C)Cc1ccc(Oc2ccccc2)cc1 | > 20 µM (inactive) |

| Compound | AC50 |
| --- | --- |
| CCCCCCCCCc1ccc(OCCOCCOCCOCCOCCOCCOCCOCCOCCO)cc1 | 4.58 µM |
| Cn1cnc([N+](=O)[O-])c1S(=O)(=O)Oc1cccc2ccccc12 | 0.397 µM |
| O=C1NC2c3c(I)sc(I)c3C(=O)C2O1 (configuration not stated) | 3.87 µM |
| CC1CCCC=CC2CC(OC(=O)CN(C)C)CC2C(O)C=CC(=O)O1 (configuration not stated) | 0.0509 µM |
| COc1ccc(C#Cc2ccc([C@H]3[C@@H](CO)N4CCCCN(S(=O)(=O)c5cn(C)cn5)C[C@H]34)cc2)cc1 | 8.82 µM |
| CSc1ccc2c(c1)N(CCC1CCCCN1C)c1ccccc1S2 (configuration not stated) | 6.07 µM |
| C=C1C(=O)C23C(O)C1CCC2C12CCCC(C)(COC(C)=O)C1C(O)C3(O)OC2 (configuration not stated) | 0.507 µM |
| O=c1cc(-c2ccc(O)cc2)oc2ccc3ccccc3c12 | 1.67 µM |
| CS(=O)(=O)c1ccc(C(=O)OCC(=O)NC(=O)C2CCCCC2)cc1[N+](=O)[O-] | 2.79 µM |
| COc1ccc(-c2cc(-c3ccccc3)c(C#N)c(S(C)=O)n2)cc1 (configuration not stated) | 1.53 µM |
| C[C@@H]1CN([C@@H](C)CO)C(=O)c2c(c3ccccc3n2C)-c2ccccc2CO[C@H]1CN(C)C(=O)Nc1ccccc1C(F)(F)F | 8.9 µM |
| CC(C)C1CC(N(C)C)=CC(=S)N1 (configuration not stated) | 10.7 µM |
| COc1ccc(S(=O)(=O)Nc2ccc3c(c2)C(=O)N([C@H](C)CO)C[C@@H](C)[C@H](CN(C)Cc2ccc(C(F)(F)F)cc2)OCCCC[C@@H](C)O3)cc1 | 8.15 µM |
| CC(C)[C@H](N)C(=O)N[C@H]1CCC2C3CC=C4C[C@@H](O)CC[C@]4(C)C3CC[C@@]21C (some centres not stated) | 1.96 µM |
| CC1CC(C)C(=NNC(N)=O)C(C(O)CC2CCC(=O)NC2=O)C1 (configuration not stated) | 0.188 µM |
| O=C1c2ccccc2C(=O)C1c1ccc2ccccc2n1 | 10.6 µM |
| Cc1cc(OCC(=O)OCC(=O)NCc2ccco2)ccc1Cl | > 20 µM (inactive) |
| N#CC(C#N)=NNc1ccc(OC(F)(F)F)cc1 | 7.15 µM |
| CO[C@@H](CN(C)S(=O)(=O)c1ccc(Cl)cc1)[C@H](C)CN(Cc1ccccc1Cl)[C@@H](C)CO | > 20 µM (inactive) |
| O=C(C1CC1)N1C[C@@H]2N[C@H](C1)C2c1ccc(-c2cccc(F)c2)cc1 (some centres not stated) | 5.96 µM |
| CN(C)c1ccc(C=c2c3cc(O)ccc3n3c2cc(-c2ccccc2)[n+]3C)cc1 | 2.46 µM |
| Cc1ccc2c(c1)C(O)(CC(=O)/C=C/C=C/c1ccccc1)C(=O)N2 (configuration not stated) | > 20 µM (inactive) |
| O=C(C1CCOCC1)N1CC(=O)N2[C@H](C1)[C@H](c1ccc(C#CCc3ccccc3)cc1)[C@@H]2CO | 1.6 µM |
